Measured values: US20070264241A1, “Compounds for Enhanced Cancer Therapy” (priority 2004, published 2007)
Read-outs that look alike come from different tables or passages of the source.

How the values were obtained:
[1] = test system: glioma cells expressing HSV-TK (S6) mixed with RFP cells; assay: Gap junction mediated cell death (bystander effect), MTT ratio A1:RFP/S6:RFP; format: cell-based, Rat; conditions: added to ganciclovir and 4-PB treatment
Method: Mixtures of cell dones were treated with drugs as indicated. After 96 h (grey bar), 120 h (white bar) and 168 h (black bar) MTT tests from three samples were performed. The ratios of the MTT tests from TK negative and TK positve mixtures (A1:RFP/S6:RFP) are shown.
Glioma cells with stable expression of green fluorescent protein (EGFP) and the herpes simplex virus thymidine kinase expressing gene HSV-TK in sense (S6) or in antisense (A1) were mixed with cells stably expressing the red fluorescent protein (RFP) (ratio 3:7 S6:RFP or A1:RFP). Ganciclovir, 4-phenylbutyrate and AGA were added 3 hrs after seeding the cells, except for AGA, which was added directly at seeding of cells. After 48 hours, cells were split and after 96, 120 and 168 hrs one each of the cell culture quadruplicates was used for MTT-test while one sample was employed for FACS analysis. After 144 h cells from the third of the quadruplicate were split again and the last quadruplicate sample was analyzed the following day (168 h).
Proliferation of cultured glioma cells was assessed by 3-(4,5-dimethylthiazol-2-yl)-2,5-diphenyltetrazolium bromide (MTT, Sigma) assay. […] The absorbance at 570 nm (with reference at 650 nm) was measured using a microtiter plate spectrophotometer (Anthos HT III). The results were expressed as percentage of viable cells compared to the control sample of untreated cells (100%).

[2] = test system: gap junction communication between S6 and RFP cells; assay: Fluorescent dye transfer between glioma cells (S6 to RFP); format: cell-based, Rat; conditions: unlabeled recipient cells
Method: S6 and RFP cells were plated each in two separate dishes with one dish of each cell type treated either with AGA or DMSO. S6 cells of both dishes were incubated with Calcein-AM and Dil. Cells were trypsinized and 85% RFP cells were mixed with 15% S6 cells and mixtures were co-cultured in two dishes where one contained cells pretreated with AGA (right panel). After 2.5 hours cells were incubated with Hoechst nuclear stain and Calcein-AM dye transfer from S6 cells to RFP cells was monitored.
Glioblastoma cells were cultured on 35 mm petri dishes and in vitro labelled with 5 μM calcein-AM (acetomethylic ester) and 10 μM Dil (Molecular Probes) diluted in supplemented serum free medium DMEM/F12 and incubated for 30 min at 37° C. The cells were washed once with the same medium, trypsinized and suspended in the culture medium induding 10% FBS. The cells were pelleted by centrifugation at 1600 rpm for 1 minute and resuspended in fresh culture medium. The procedure was repeated twice. Following the second resuspension, the labelled cells were plated on top of unlabelled cells of the same origin. These cells were either pretreated with 4-PB at a concentration of 5 mM, or non-treated serving as a control. The labeled cells were then allowed to settle for 1 hour, followed by analyses using epifluorescence detection microscopy every 30 minutes for up to 6 hours. […]

U343MG cells = assay: XTT cytotoxicity assay of nucleoside analogues with or without phenylbutyrate pre-incubation; format: cell-based, human; conditions: for IC50: 120 hours drug exposure, combinations: 24 h pre-incubation with 3.16 mM phenylbutyrate
Method: (§1) Cells were seeded at a density of 1.000-2.000 cells/well in 96-well plates. […] Plated incubated for 24 hours (37° C., 5% CO2) where after media was discarded and replaced by media conditioned with various concentrations of nucleoside analogs (e.g. AZT), 200 μl/well. After 120 hours of drug exposure the experiments were terminated. Cell proliferation/cytotoxicity was assessed by adding the colour generating substrates of the Cell Proliferation kit II (XTT) from Roche (Cat. No. 1465015) and measuring absorbance at 450 nm and 690 nm with a Thermo Labsystems Multiscan Ascent reader. The data was corrected for background media-only absorbance where after the 50% growth inhibitory concentration—IC50 (the dose that inhibits cell growth by 50%) was calculated for each treatment. Cells were seeded at a density of 1.000-2.000 cells/well in PLL coated 96-well plates. […] Plated incubated for 24 hours (37° C., 5% CO2) where after media was discarded and replaced by media conditioned with various concentrations of nucleoside analogs; AZT (Sigma # A2169), AraC (Sigma # C6645), Cladribine (CdA) (Sigma #C4438), Gancidovir (GCV) (Sigma # G2536) and Gemcitabine (Orifarm), 200 μl/well. After 120 hours of drug exposure the experiments were terminated. Cell proliferation/cytotoxicity was assessed by adding the colour generating substrates of the Cell Proliferation kit II (XTT) from Roche (Cat. No. 1465015) and measuring absorbance at 450 nm and 690 nm with a Thermo Labsystems Multiscan Ascent reader. he data was corrected for background media-only absorbance where after the 50% growth inhibitory concentration—IC50 (the dose that inhibits cell growth by 50%) was calculated for ach treatment.

CL2:6 cells = assay: as above; format: cell-based; conditions: 120 hours drug exposure; for IC50: combinations: 24 h pre-incubation with 3.16 mM phenylbutyrate; for sensitivity improvement/increase by phenylbutyrate pre-incubation: CL2:6 pre-incubated 24 h with phenylbutyrate
Method: as §1

U87MG cells = assay: XTT cytotoxicity assay of phenylbutyrate and of nucleoside analogues with or without phenylbutyrate pre-incubation; format: cell-based, human; conditions: 120 hours drug exposure; for IC50: combinations: 24 h pre-incubation with 3.16 mM phenylbutyrate, read-out: IC50 U87MG; for sensitivity increase by phenylbutyrate pre-incubation: U87MG pre-incubated 24 h with phenylbutyrate
Method: Briefly, cells were harvested by trypsinzation, stained by Tryphan Blue for cell viability counting, seeded in triplicate in 96-well plates (1.000-2.000 cells/well) where after media conditioned with a fixed concentration of phenyl butyrate (3.16 mM) were added to the plates followed by incubation for 24 hours at 37° C. and 5% CO2. Cell proliferation/cytotoxicity was assessed by adding the colour generating substrates of the Cell Proliferation kit II (XTT) from Roche (Cat. No. 1465015) and measuring absorbance at 450 nm and 690 nm with a Thermo Labsystems Multiscan Ascent reader.
Cells were seeded at a density of 1.000-2.000 cells/well in 96-well plates. Cells were pre-incubated with 4-phenyl butyrate for 24 hours prior to drug exposure by adding media conditioned with phenyl butyrate at a fixed concentration (3.16 mM). Plated incubated for 24 hours (37° C., 5% CO2) where after media was discarded and replaced by media conditioned with various concentrations of nucleoside analogs (e.g. AZT), 200 μl/well. After 120 hours of drug exposure the experiments were terminated. Cell proliferation/cytotoxicity was assessed by adding the colour generating substrates of the Cell Proliferation kit II (XTT) from Roche (Cat. No. 1465015) and measuring absorbance at 450 nm and 690 nm with a Thermo Labsystems Multiscan Ascent reader.
The data was corrected for background media-only absorbance where after the 50% growth inhibitory concentration—IC50 (the dose that inhibits cell growth by 50%) was calculated for each treatment.
Briefly, cells were harvested by trypsinzation, stained by Tryphan Blue (Cambrex) for cell viability counting, seeded in triplicate in poly-L-lysine (PLL) (Sigma # P6282) coated 96-well plates (1.000-2.000 cells/well) where after media conditioned with a fixed concentration of phenyl butyrate (3.16 mM) was added to the plates followed by incubation for 24 hours at 37° C. and 5% CO2. Cell proliferation/cytotoxicity was assessed by adding the colour generating substrates of the
Cells were seeded at a density of 1.000-2.000 cells/well in PLL coated 96-well plates. Cells were pre-incubated with 4-phenyl butyrate for 24 hours prior to drug exposure by adding media conditioned with phenyl butyrate at a fixed concentration (3.16 mM). Plated incubated for 24 hours (37° C., 5% CO2) where after media was discarded and replaced by media conditioned with various concentrations of nucleoside analogs; AZT (Sigma # A2169), AraC (Sigma # C6645), Cladribine (CdA) (Sigma #C4438), Gancidovir (GCV) (Sigma # G2536) and Gemcitabine (Orifarm), 200 μl/well. After 120 hours of drug exposure the experiments were terminated. Cell proliferation/cytotoxicity was assessed by adding the colour generating substrates of the Cell Proliferation kit II (XTT) from Roche (Cat. No. 1465015) and measuring absorbance at 450 nm and 690 nm with a Thermo Labsystems Multiscan Ascent reader. he data was corrected for background media-only absorbance where after the 50% growth inhibitory concentration—IC50 (the dose that inhibits cell growth by 50%) was calculated for ach treatment.

U87MG wt cells = assay: Cell killing effect of AZT, XTT assay, non-transduced cells; format: cell-based, human; conditions: 120 hours
Method: Exponentially growing U87 wt and tomato kinase expressing cells were plated at a density of 2.000 cells/well in poly-L-lysine coated 96-well plates in 100 μl conditioned medium and incubated 37° C. in a humidified incubator with a gas phase of 5% CO2. After 24 hours, medium was replaced with medium containing varying concentrations of AZT. Hereafter, cells were exposed to drug conditioned media for 120 constitutive hours. The chemo resistance of cultured cells was monitored by the surviving cell fraction as a function of the drug concentration. Viability of cells was determined via the colorimetric XTT assay (XTT kit II—Roche, cat no. 1465015). Briefly, cell media was carefully removed and 100 μl fresh media and 50 μl XTT mix was added to each well. The absorbance at 450 and 690 nm was determined using an ELISA plate reader (Ascent, ThermoLab). The IC50 value (50% inhibition concentration) of the investigated compound was calculated as the mean value of each experiment using SigmaPlot® (Dyrberg Trading, DK).

[3] = test system: U87MG cells expressing tomato thymidine kinase; assay: Cell killing effect of AZT, XTT assay, tomato thymidine kinase transduced cells; format: cell-based, human; conditions: for IC50: U87MG tomato TK
[4] = test system: hGBM-1, hGBM-5 and hGBM-14 glioblastoma cultures; assay: MTT assay of cell viability and proliferation in primary glioblastoma cultures; format: cell-based, human; conditions: hGBM-1, hGBM-5, hGBM-14; 24 hours (FIG. 2)
Method: Proliferation of cultured glioma cells was assessed by 3-(4,5-dimethylthiazol-2-yl)-2,5-diphenyltetrazolium bromide (MTT, Sigma) assay. MTT tetrazolium salt was dissolved in serum-free culture medium (0.5 mg/ml), added to the cells (150 μl/well) and incubated for 30 min at 37° C. Formazan dye, formed by viable cells, was solubilized in 300 μl of isopropanol. Aliquots (100 μl) of the solutions were transferred to 96-well microplates. The absorbance at 570 nm (with reference at 650 nm) was measured using a microtiter plate spectrophotometer (Anthos HT III). The results were expressed as percentage of viablecells compared to the control sample of untreated cells (100%).

[5] = test system: cell line transfected with Dm dNK variant; conditions: cited from earlier work

CC1(C)[C@@H](O)CC[C@]2(C)[C@H]3C(=O)C=C4[C@H]5C[C@@](C)(C(=O)O)CC[C@]5(C)CC[C@@]4(C)[C@]3(C)CC[C@@H]12 [AGA, 18α glycyrrhethinic acid]
bystander killing effect upon addition of gap junction inhibitor [1]: reduced
calcein transfer from Dil-positive donor cells [2]: inhibited

Cc1cn([C@H]2C[C@H](N=[N+]=[N-])[C@@H](CO)O2)c(=O)[nH]c1=O [AZT, 3′-azido-3′-thymidine]
IC50 (U343MG cells): 56 µM
sensitivity improvement by phenylbutyrate pre-incubation (U343MG cells; U343MG pre-incubated 24 h with phenylbutyrate): 4.2 times
IC50 (CL2:6 cells): 573 µM
sensitivity improvement/increase by phenylbutyrate pre-incubation (CL2:6 cells): 1.7 times
IC50 (U87MG cells): 6000 µM
IC50 (U87MG wt cells): 7430 µM
sensitivity increase of tomato TK expressing U87 cells compared to wt U87MG [3]: 500 fold
IC50 ([3]; 120 hours, read-out: IC50 for tomato TK transduced cells): 14.8 µM
IC50 ([3]; read-out: IC50 measured in FIG. 15B, approximate): ~15 µM

Nc1ccn([C@@H]2O[C@H](CO)[C@@H](O)[C@@H]2O)c(=O)n1 [AraC, cytidine-arabinoside]
IC50 (U87MG cells): 4340 µM
sensitivity increase by phenylbutyrate pre-incubation (U87MG cells): 3.5 times

Nc1nc(Cl)nc2c1ncn2[C@H]1C[C@H](O)[C@@H](CO)O1 [CdA, 2-chloro-2′-deoxyadenosine]
IC50 (U87MG cells; Homo sapiens, U-87 MG): 5.74 µM
sensitivity increase by phenylbutyrate pre-incubation (U87MG cells): 2.3 times

Nc1nc(O)c2ncn(COC(CO)CO)c2n1 [GCV, 9-[2-hydroxy-1-(hydroxymethyl)ethoxyl-methyl]-guanosine]
IC50 (U343MG cells; Homo sapiens, U-343MG): 104 µM
IC50 (CL2:6 cells): 3360 µM
sensitivity improvement/increase by phenylbutyrate pre-incubation (CL2:6 cells): 1.4 times

Nc1ccn([C@@H]2O[C@H](CO)[C@@H](O)C2(F)F)c(=O)n1 [Gemcitabine, 2′,2′-difluorodeoxycytidine]
IC50 (U87MG cells; Homo sapiens, U-87 MG): 0.248 µM
sensitivity increase by phenylbutyrate pre-incubation (U87MG cells): 7.8 times

O=C1CCc2c(ccc3ccccc23)O1 [Splitomicin, splitomicin]
antiproliferative potency compared with 4-PB (MTT) [4]: less potent

CC(/C=C/C(=O)NO)=C\[C@@H](C)C(=O)c1ccc(N(C)C)cc1 [Trichostatin A]
antiproliferative potency compared with 4-PB (MTT) [4]: less potent

CCCC(=O)[O-].[Na+] [sodium butyrate]
antiproliferative potency compared with 4-PB (MTT) [4]: less potent

CCCC(CCC)C(=O)O [valproic acid]
antiproliferative potency compared with 4-PB (MTT) [4]: less potent

B1: B5: mutant form of the Drosophila melanogaster Dm dNK deoxyribonucleoside kinase (SEQ ID NO 5) (protein)
chain: MAEAASCARKGTKYAEGTQPFTVLIEGNIGSGKTTYLNHFEKYKNDICLLTEPVEKWRNVNGVNLLELMYKDPKKWAMPFQSYATLTMLQSHTAPTNKKLKIMERSIFSARYCFVENMRRNGSLEQGMYNTLEEWYKFIEESIHVQADLIIYLRTSPEVAYERIRQRARSEESCVPLKYLQELHELHEDWLIHQRRPQSCKVLVLDADLDLENIGTEYQRSESSIFDAISSNQQPSPVPVSPSKRQRVAR
modifications: Drosophila melanogaster
degree of activation for gemcitabine relative to wild type Dm dNK [5]: approximately 50 times
